The assay concerns the target T1, Human full length PKD1 (Homo sapiens, UniProt Q15139).
T1 construct: Human full length PKD1 at ˜100 μg/mL purchased from Upstate Ltd; purchased Upstate Ltd 14-508
T1 sequence (Q15139 1-912): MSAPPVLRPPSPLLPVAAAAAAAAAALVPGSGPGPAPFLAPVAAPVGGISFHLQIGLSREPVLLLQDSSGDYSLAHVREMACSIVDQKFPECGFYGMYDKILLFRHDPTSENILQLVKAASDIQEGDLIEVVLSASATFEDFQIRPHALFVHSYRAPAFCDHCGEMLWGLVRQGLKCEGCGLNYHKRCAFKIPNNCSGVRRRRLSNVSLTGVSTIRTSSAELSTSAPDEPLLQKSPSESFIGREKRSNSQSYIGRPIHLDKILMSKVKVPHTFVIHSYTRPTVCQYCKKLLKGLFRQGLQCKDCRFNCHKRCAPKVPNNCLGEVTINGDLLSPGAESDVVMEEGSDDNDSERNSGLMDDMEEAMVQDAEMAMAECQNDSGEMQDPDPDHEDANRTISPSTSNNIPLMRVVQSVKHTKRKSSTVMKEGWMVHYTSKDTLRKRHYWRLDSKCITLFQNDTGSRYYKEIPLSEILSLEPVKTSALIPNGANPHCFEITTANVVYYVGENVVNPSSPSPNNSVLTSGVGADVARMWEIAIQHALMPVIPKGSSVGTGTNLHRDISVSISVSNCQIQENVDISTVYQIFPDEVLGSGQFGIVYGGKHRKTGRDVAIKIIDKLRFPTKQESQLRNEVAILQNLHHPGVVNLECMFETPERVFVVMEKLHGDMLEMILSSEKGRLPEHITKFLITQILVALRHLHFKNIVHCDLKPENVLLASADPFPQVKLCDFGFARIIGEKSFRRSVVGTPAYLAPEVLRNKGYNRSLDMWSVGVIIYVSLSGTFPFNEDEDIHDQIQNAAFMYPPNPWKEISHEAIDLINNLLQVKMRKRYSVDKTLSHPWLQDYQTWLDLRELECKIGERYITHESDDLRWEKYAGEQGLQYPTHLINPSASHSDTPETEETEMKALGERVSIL
Briefly: PKD1 (Human Full Length) Enzyme Activity Assay (IMAP fluorescence polarisation). Format: biochemical. The following applies: 10 μM ATP, 25 minutes, room temperature. As to the method: Kinase Assay Reaction Buffer: This consisted of 0.22 μM filtered 25 mM HEPES and 2 mM MgCl2 pH 7.5.
Kinase Enzyme: Human full length PKD1 at ˜100 μg/mL purchased from Upstate Ltd (Product code 14-508) was obtained from aliquots stored at −70° C. It was prepared with a final concentration of 0.3 μg/mL by diluting 1:300 in Reaction Buffer (30 μL per 9 mL-5 mL per plate with an additional 4 mL dead volume) and vortexing prior to use.
Substrate: Fluorescein labelled glycogen synthase-derived peptide (FI)-KKLNRTLSVA (also known as MAPKAP K2 substrate) was obtained from Molecular Devices (Product code R7127). […]
The fluorescence polarisation of the substrate in each well was recorded using an analyst microplate reader (Molecular Devices) with a single read at Ex485 Em535 (Analyst settings: Z Height 5 mm, G Factor 0.95, Reads/well 1, Integration 100000 μs, Gain Sensitivity 2).
Percentage inhibition was calculated based on activity of the test sample minus the average values in the blank wells relative to the average values measured in control wells minus the average values in the blank wells.
IC50 values were calculated from 10 point dose sigmoid ‘dose-response’ curves using Xlfit software (IDBS inc, USA). […]
(Polarisation of emitted light reports the rotation of a fluorescent probe.)

From patent publication US20110098325A1, “PYRIDINE BENZAMIDES AND PYRAZINE BENZAMIDES USED AS PKD INHIBITORS” (CANCER RESEARCH TECHNOLOGY LIMITED, priority 2006, published 2011) come the findings set out here.

Structures are written as SMILES. pIC50: −log10 of the molar value.

The pIC50 is the negative decadic logarithm of the IC50, by convention in mol/L.

Compound `COc1cc(-c2cc(-c3cccc(C(=O)NCCN(C)C)c3)cnc2N)ccc1O` [Y-059, 3-[6-Amino-5-(4-hydroxy-3-methoxy-phenyl)-pyridin-3-yl]-N-(2-dimethylamino-ethyl)-benzamide] showed a negative-log IC50 (pIC50) of 8.22.

With `COc1cc(-c2nc(-c3cccc(C(=O)NCCN(C)C)c3)cnc2N)ccc1O` [X-017, 3-[5-Amino-6-(4-hydroxy-3-methoxy-phenyl)-pyrazin-2-yl]-N-(2-dimethylamino-ethyl)-benzamide], the pIC50 was 8.40.
